Test systems include Bacillus cereus IFO 3457; Escherichia coli CE273; Escherichia coli CR3; Proteus vulgaris.
Holding throughout (test): ≥ marks a high value that may be exact or a test limit, other limits are often not marked, values filed in µg/mL are converted to µM
The test system of experiment [1] is Salmonella typhimurium KCTC 1926.
The subject of experiment [2] is Candida albicans TIMM 1768.
Experiment [3] deals with Proteus vulgaris KCTC 2433.
The test system of experiment [4] is Trichosporon beigelii KCTC 7707.
The subject of experiment [5] is Bacillus subtilis KCTC 1918.
In experiment [6] the test system is Saccharomyces cerevisiae KCTC 7296.
The subject of experiment [7] is Staphylococcus aureus KCTC 1621.
Experiment [8] has as its system Escherichia coli ATCC 25922.
Experiment [9] concerns Streptococcus salivarius ATCC 13419.
The test system of experiment [10] is Staphylococcus epidermidis ATCC 14990.
Experiment [11] relates to Staphylococcus aureus ATCC 12600.
Experiment [12] concerns Vibrio parahaemolyticus IFO12711.
The test system of experiment [13] is Staphylococcus aureus IFO 13276.
Experiment [14] has as its system Salmonella enterica subsp. enterica serovar Enteritidis ATCC 1891.
Experiment [15] has as its system Bacillus subtilis IFO 13722.
In experiment [16] the test system is Staphylococcus aureus FDA 209P JC-1.
In experiment [17] the test system is Staphylococcus aureus Smith.
The test system of experiment [18] is Escherichia coli ATCC 39188.
For experiment [19], the system named is Escherichia coli NIHJ JC-2.
The test system of experiment [20] is Staphylococcus aureus JCM 2431.
Experiment [21] deals with Escherichia coli JCM 1649.
Experiment [22] has as its system Salmonella enterica subsp. enterica serovar Typhimurium ATCC 14028.
Experiment [23] concerns Bacillus subtilis ATCC 6633.
The test system of experiment [24] is Escherichia coli KCTC 1682.
In experiment [25] the test system is Pseudomonas aeruginosa KCTC 1637.
Experiment [26] concerns Bacillus megaterium KCTC 1096.

Converted amounts (≈) assume the structure as drawn.

As to `CC[C@H](C)[C@H](NC(=O)CNC(=O)[C@H](CC(C)C)NC(=O)[C@H](CCCN=C(N)N)NC(=O)[C@H](CCCCN)NC(=O)[C@H](Cc1ccccc1)NC(=O)[C@@H](NC(=O)[C@H](CCCCN)NC(=O)[C@H](CCCCN)NC(=O)[C@H](C)N)C(C)C)C(=O)NCC(=O)N[C@@H](C)C(=O)N[C@H](C(=O)N[C@@H](CC(C)C)C(=O)N[C@@H](CCCCN)C(=O)N[C@H](C(=O)N[C@@H](CC(C)C)C(=O)N[C@H](C(=O)N[C@@H](Cc1c[nH]c2ccccc12)C(=O)NCC(=O)O)[C@@H](C)O)C(C)C)C(C)C` [AKKVFKRLGIGAVLKVLTWG], the MIC (usually the least concentration at which growth counts as inhibited) in experiment [1] was 0.39 µM (≈ 0.852 µg/mL); in experiment [2] it was no less than 50 µM; in experiment [3] it was 0.78 µM (≈ 1.7 µg/mL); in experiment [4] it was no less than 35.4 µM; in experiment [5], 0.78 µM (≈ 1.7 µg/mL); in experiment [6], 17.7 µM (≈ 38.6 µg/mL). Besides, the MIC in [7] was determined as 0.78 µM (≈ 1.7 µg/mL).

Turning to `CC(C)C[C@@H]1NC(=O)[C@H](C(C)C)NC(=O)[C@H](Cc2ccccc2)NC(=O)[C@@H]2CSSC[C@@H]3NC(=O)[C@H](Cc4ccc(O)cc4)NC(=O)[C@@H]4CSSC[C@H](NC(=O)[C@H](CCCN=C(N)N)NC(=O)[C@H]([C@@H](C)O)NC(=O)CNC(=O)[C@H](CC(N)=O)NC(=O)[C@H](CCCN=C(N)N)NC(=O)[C@H](Cc5ccc(O)cc5)NC(=O)[C@H](CSSC[C@H](NC(=O)[C@@H]5CCCN5C1=O)C(=O)N[C@@H](Cc1c[nH]c5ccccc15)C(=O)N[C@@H](CO)C(=O)N[C@@H](C)C(=O)N[C@@H](CCCCN)C(=O)N[C@@H](Cc1ccccc1)C(=O)NCC(=O)N4)NC(=O)[C@H](Cc1ccccc1)NC(=O)CNC(=O)[C@H](CCCCN)NC(=O)[C@H](CCC(N)=O)NC3=O)C(=O)NCC(=O)N[C@@H](CCC(=O)O)C(=O)N[C@@H]([C@@H](C)O)C(=O)N2` [GTRCGETCFVLPCWSAKFGCYCQKGFCYRN], the MIC was 3.4 µM (≈ 11.6 µg/mL) in [8], 5.9 µM (≈ 20.1 µg/mL) in [9], no less than 80 µM in experiment [10] and no less than 80 µM in experiment [11].

Consider `CC[C@H](C)[C@H](NC(=O)CNC(=O)[C@H](CCCCN)NC(=O)[C@H](Cc1c[nH]c2ccccc12)NC(=O)[C@H](CC(N)=O)NC(=O)[C@@H](N)CCCCN)C(=O)N[C@@H](C)C(=O)NCC(=O)N[C@@H](CCSC)C(=O)N[C@@H](C)C(=O)N[C@@H](CCCCN)C(=O)N[C@@H](CCCCN)C(=O)N[C@@H](CC(C)C)C(=O)N[C@@H](CC(C)C)C(=O)NCC(=O)N[C@@H](CCCCN)C(=O)N[C@@H](CC(N)=O)C(=O)N[C@@H](Cc1c[nH]c2ccccc12)C(=O)N[C@@H](CCCCN)C(=O)N[C@@H](CC(C)C)C(=O)N[C@@H](CCSC)C(=O)O` [KNWKGIAGMAKKLLGKNWKLM], for which the MIC in [12] is no less than 50 µM; in experiment [13], 25 µM (≈ 60.4 µg/mL); in [14], 6.3 µM (≈ 15.2 µg/mL); in experiment [15], 6.3 µM (≈ 15.2 µg/mL); against Bacillus cereus IFO 3457, 3.1 µM (≈ 7.49 µg/mL); in experiment [16], 1.6 µM (≈ 3.87 µg/mL). For the same molecule, the MIC in experiment [17] was determined as 6.3 µM (≈ 15.2 µg/mL); against Escherichia coli CE273, 3.1 µM (≈ 7.49 µg/mL); in experiment [18], 3.1 µM (≈ 7.49 µg/mL); in experiment [19], 3.1 µM (≈ 7.49 µg/mL); in experiment [20], 12.5 µM (≈ 30.2 µg/mL); in [21] it was 6.3 µM (≈ 15.2 µg/mL). The MIC is 6.3 µM (≈ 15.2 µg/mL) against Escherichia coli CR3, 6.3 µM (≈ 15.2 µg/mL) in [22] and 3.1 µM (≈ 7.49 µg/mL) in [23].

`CC[C@H](C)[C@H](NC(=O)[C@H](CCCCN)NC(=O)[C@H](CCCCN)NC(=O)[C@H](Cc1ccccc1)NC(=O)[C@H](CC(C)C)NC(=O)[C@H](CCCCN)NC(=O)[C@H](Cc1c[nH]c2ccccc12)NC(=O)[C@@H](N)CCCCN)C(=O)N1CCC[C@H]1C(=O)N[C@@H](CC(C)C)C(=O)N[C@@H](CCCCN)C(=O)N[C@@H](CCCCN)C(=O)N[C@@H](Cc1ccccc1)C(N)=O` [KWKLFKKIPLKKF]: the MIC with Proteus vulgaris worked out at 3.12 µM (≈ 5.32 µg/mL); in experiment [24], 12.5 µM (≈ 21.3 µg/mL); in [25], 12.5 µM (≈ 21.3 µg/mL); in experiment [26], 3.12 µM (≈ 5.32 µg/mL); in experiment [5], 1.56 µM (≈ 2.66 µg/mL); in [7], 12.5 µM (≈ 21.3 µg/mL).

(Values after DBAASP.)
